# Columns and labels:
# [1] = NCI one-dose screening, renal cancer A489; assay type: cell-based, human; conditions: 10 μM
# HOP-62 = assay: NCI one-dose screening, non-small cell lung cancer HOP-62; assay type: cell-based, human; conditions: 10 μM
# NCl/ADR-RES = assay: NCI one-dose screening, breast cancer NCl/ADR-RES; assay type: cell-based, human; conditions: 10 μM; listed under Ovarian cancer
# SF-268 = assay: NCI one-dose screening, CNS cancer SF-268; assay type: cell-based, human; conditions: 10 μM
# A549/ATCC = assay: NCI one-dose screening, non-small cell lung cancer A549/ATCC; assay type: cell-based, human; conditions: 10 μM
# OVCAR-5 = assay: NCI one-dose screening, ovarian cancer OVCAR-5; assay type: cell-based, human; conditions: 10 μM
# M14 = assay: NCI one-dose screening, melanoma M14; assay type: cell-based, human; conditions: 10 μM
# T-47D = assay: NCI one-dose screening, breast cancer T-47D; assay type: cell-based, human; conditions: 10 μM
# U251 = assay: NCI one-dose screening, CNS cancer U251; assay type: cell-based, human; conditions: 10 μM
# LOX IMVI = assay: NCI one-dose screening, melanoma LOX IMVI; assay type: cell-based, human; conditions: 10 μM
# SN12C = assay: NCI one-dose screening, renal cancer SN12C; assay type: cell-based, human; conditions: 10 μM
# MOLT-4 = assay: NCI one-dose screening, leukemia MOLT-4; assay type: cell-based, human; conditions: 10 μM
# COLO 205 = assay: NCI one-dose screening, colon cancer COLO 205; assay type: cell-based, human; conditions: 10 μM
# K562cell line = assay: NCI one-dose screening, leukemia K562; assay type: cell-based, human; conditions: 10 μM
# SF-539 = assay: NCI one-dose screening, CNS cancer SF-539; assay type: cell-based, human; conditions: 10 μM
# UACC-257 = assay: NCI one-dose screening, melanoma UACC-257; assay type: cell-based, human; conditions: 10 μM
# DU145 = assay: NCI one-dose screening, prostate cancer DU145; assay type: cell-based, human; conditions: 10 μM
# SNB-75 = assay: NCI one-dose screening, CNS cancer SNB-75; assay type: cell-based, human; conditions: 10 μM
# HL-60, TB = assay: NCI one-dose screening, leukemia HL-60, TB; assay type: cell-based, human; conditions: 10 μM
# UO-31 = assay: NCI one-dose screening, renal cancer UO-31; assay type: cell-based, human; conditions: 10 μM
# PRMI-8226 cell line = assay: NCI one-dose screening, leukemia PRMI-8226; assay type: cell-based, human; conditions: 10 μM
# SK-MEL-2 = assay: NCI one-dose screening, melanoma SK-MEL-2; assay type: cell-based, human; conditions: 10 μM
# PC-3 = assay: NCI one-dose screening, prostate cancer PC-3; assay type: cell-based, human; conditions: 10 μM
# HS 578-T = assay: NCI one-dose screening, breast cancer HS 578-T; assay type: cell-based, human; conditions: 10 μM; Breast cancer
# SK-OV-3 = assay: NCI one-dose screening, ovarian cancer SK-OV-3; assay type: cell-based, human; conditions: 10 μM
# IGROV1 = assay: NCI one-dose screening, ovarian cancer IGROV1; assay type: cell-based, human; conditions: 10 μM
# OVCAR-3 = assay: NCI one-dose screening, ovarian cancer OVCAR-3; assay type: cell-based, human; conditions: 10 μM
# RXF, 393 = assay: NCI one-dose screening, renal cancer RXF, 393; assay type: cell-based, human; conditions: 10 μM
# HOP-92 = assay: NCI one-dose screening, non-small cell lung cancer HOP-92; assay type: cell-based, human; conditions: 10 μM
# TK-10 = assay: NCI one-dose screening, renal cancer TK-10; assay type: cell-based, human; conditions: 10 μM
# HT29 = assay: NCI one-dose screening, colon cancer HT29; assay type: cell-based, human; conditions: 10 μM
# HCT-15 = assay: NCI one-dose screening, colon cancer HCT-15; assay type: cell-based, human; conditions: 10 μM
# HCC-2998 = assay: NCI one-dose screening, colon cancer HCC-2998; assay type: cell-based, human; conditions: 10 μM
# NCI-H226 = assay: NCI one-dose screening, non-small cell lung cancer NCI-H226; assay type: cell-based, human; conditions: 10 μM
# ACHN = assay: NCI one-dose screening, renal cancer ACHN; assay type: cell-based, human; conditions: 10 μM
# SNB-19 = assay: NCI one-dose screening, CNS cancer SNB-19; assay type: cell-based, human; conditions: 10 μM
# NCI-H23 = assay: NCI one-dose screening, non-small cell lung cancer NCI-H23; assay type: cell-based, human; conditions: 10 μM
# NCI-H460 = assay: NCI one-dose screening, non-small cell lung cancer NCI-H460; assay type: cell-based, human; conditions: 10 μM
# BT-549 = assay: NCI one-dose screening, breast cancer BT-549; assay type: cell-based, human; conditions: 10 μM
# UACC-62 = assay: NCI one-dose screening, melanoma UACC-62; assay type: cell-based, human; conditions: 10 μM
# OVCAR-8 = assay: NCI one-dose screening, ovarian cancer OVCAR-8; assay type: cell-based, human; conditions: 10 μM
# HCT-116 = assay: NCI one-dose screening, colon cancer HCT-116; assay type: cell-based, human; conditions: 10 μM
# [2] = tested on: PC-3 prostate cancer cell line; assay: SRB assay cell viability, PC-3 prostate cancer cell line; assay type: cell-based, human; conditions: Homo sapiens, PC-3 prostate cancer cell line, Table II prints no unit, μM printed, read-out: SRB assay: 50% inhibition of cancer cell proliferation of sample concentration (IC50) of PC-3 prostate cancer cell line
# MCF7 = assay: NCI one-dose screening, breast cancer MCF7; assay type: cell-based, human; conditions: 10 μM
# KM12 = assay: NCI one-dose screening, colon cancer KM12; assay type: cell-based, human; conditions: 10 μM
# 786-O = assay: NCI one-dose screening, renal cancer 786-O; assay type: cell-based, human; conditions: 10 μM
# MALME-3M = assay: NCI one-dose screening, melanoma MALME-3M; assay type: cell-based, human; conditions: 10 μM
# CAKI-1 = assay: NCI one-dose screening, renal cancer CAKI-1; assay type: cell-based, human; conditions: 10 μM
# human tumor cell lines = assay: NCI one-dose screening, Mean / Delta / Range of growth percent over all tested cell lines; assay type: cell-based; conditions: 10 μM
# MDA, -MB-435 = assay: NCI one-dose screening, breast cancer MDA, -MB-435; assay type: cell-based, human; conditions: 10 μM; listed under Melanoma
# MDA-MB-231/ATCC = assay: NCI one-dose screening, breast cancer MDA-MB-231/ATCC; assay type: cell-based, human; conditions: 10 μM
# NCI-H522 = assay: NCI one-dose screening, non-small cell lung cancer NCI-H522; assay type: cell-based, human; conditions: 10 μM
# SR = assay: NCI one-dose screening, leukemia SR; assay type: cell-based, human; conditions: 10 μM
# EKVX = assay: NCI one-dose screening, non-small cell lung cancer EKVX; assay type: cell-based, human; conditions: 10 μM
# MDA-MB-468 = assay: NCI one-dose screening, breast cancer MDA-MB-468; assay type: cell-based, human; conditions: 10 μM
# SK-MEL-5 = assay: NCI one-dose screening, melanoma SK-MEL-5; assay type: cell-based, human; conditions: 10 μM
# SK-MEL-28 = assay: NCI one-dose screening, melanoma SK-MEL-28; assay type: cell-based, human; conditions: 10 μM
structure (smiles),measurement,setting,value
"COc1ccc(Sc2cc3c(c4nsnc24)C(=O)c2ccccc2C3=O)cc1 [C41, 4-(4-methoxy-phenyl-thio)anthra[2,1-c] [1,2,5]thiadiazol-6,11-dione]",Growth Percent A498,[1],84.77%
same,Growth Percent HOP-62,HOP-62,95.20%
same,Growth Percent NCI/ADR-RES,NCl/ADR-RES,97.60%
same,Growth Percent SF-268,SF-268,94.81%
same,Growth Percent A549/ATCC,A549/ATCC,103.32%
same,Growth Percent OVCAR-5,OVCAR-5,103.00%
same,Growth Percent M14,M14,92.89%
same,Growth Percent T-47D,T-47D,89.66%
same,Growth Percent U251,U251,102.73%
same,Growth Percent LOX IMVI,LOX IMVI,90.24%
same,Growth Percent SN12C,SN12C,106.54%
same,Growth Percent MOLT-4,MOLT-4,82.89%
same,Growth Percent COLO 205,COLO 205,112.25%
same,Growth Percent K562,K562cell line,91.98%
same,Growth Percent SF-539,SF-539,93.53%
same,Growth Percent UACC-257,UACC-257,118.11%
same,Growth Percent DU145,DU145,112.48%
same,Growth Percent SNB-75,SNB-75,79.05%
same,Growth Percent HL-60(TB),"HL-60, TB",102.73%
same,Growth Percent UO-31,UO-31,68.31%
same,Growth Percent RPMI-8226,PRMI-8226 cell line,101.16%
same,Growth Percent SK-MEL-2,SK-MEL-2,99.24%
same,Growth Percent PC-3,PC-3,82.81%
same,Growth Percent HS 578T,HS 578-T,96.71%
same,Growth Percent SK-OV-3,SK-OV-3,106.18%
same,Growth Percent IGROV1,IGROV1,103.17%
same,Growth Percent OVCAR-3,OVCAR-3,109.57%
same,Growth Percent RXF 393,"RXF, 393",109.28%
same,Growth Percent HOP-92,HOP-92,91.38%
same,Growth Percent TK-10,TK-10,135.79%
same,Growth Percent HT29,HT29,101.30%
same,Growth Percent HCT-15,HCT-15,109.35%
same,Growth Percent HCC-2998,HCC-2998,106.85%
same,Growth Percent NCI-H226,NCI-H226,79.51%
same,Growth Percent ACHN,ACHN,102.26%
same,Growth Percent SNB-19,SNB-19,113.97%
same,Growth Percent NCI-H23,NCI-H23,89.13%
same,Growth Percent NCI-H460,NCI-H460,107.16%
same,Growth Percent BT-549,BT-549,92.92%
same,Growth Percent UACC-62,UACC-62,108.99%
same,Growth Percent OVCAR-8,OVCAR-8,99.50%
same,Growth Percent HCT-116,HCT-116,94.64%
same,IC50,[2],> 15 µM
same,Growth Percent MCF7,MCF7,93.78%
same,Growth Percent KM12,KM12,101.28%
same,Growth Percent 786-0,786-O,94.93%
same,Growth Percent MALME-3M,MALME-3M,89.52%
same,Growth Percent CAKI-1,CAKI-1,108.29%
same,Growth Percent Delta,human tumor cell lines; delta over all cell lines,32.46%
same,Growth Percent Mean,human tumor cell lines; mean over all cell lines,1000.77%
same,Growth Percent Range,human tumor cell lines; range over all cell lines,80.45%
same,Growth Percent MDA-MB-435,"MDA, -MB-435",118.61%
same,Growth Percent MDA-MB-231/ATCC,MDA-MB-231/ATCC,87.58%
same,Growth Percent NCI-H522,NCI-H522,95.69%
same,Growth Percent SR,SR,101.71%
same,Growth Percent EKVX,EKVX,148.76%
same,Growth Percent MDA-MB-468,MDA-MB-468,112.95%
same,Growth Percent SK-MEL-5,SK-MEL-5,106.14%
same,Growth Percent SK-MEL-28,SK-MEL-28,115.63%
